Columns and labels:
[1] = test system: HER2+ cell lines (N87 and SKBR3); assay: In vitro efficacy with hydroxy-containing drugs (aromatic and aliphatic alcohols); format: cell-based; details: unconjugated drug
Source text: The scope of the linker system of conjugates in accordance with embodiments of the invention has been evaluated with further phenol-(or aromatic alcohol-) containing drugs OTS-964, Ganetespib and Birabresib. OTS-964 is a potent TOPK inhibitor, Ganetespib is a potent […], and Birabresib is a potent bromodomain inhibitor. […] Potency of the free payloads (OTS-964, Ganetespib and Birabresib) in the respective cell lines is also shown.
The scope of the linker system described herein has been also evaluated with further aliphatic alcohol-containing drugs SNX-2112, Gemcitabine and Barasertib. SNX-2112 is a potent HSP90-inhibitor, Gemcitabine is a potent ribonucleotide reductase inhibitor, and Barasertib is a potent Aurora B kinase inhibitor. […] Potency of the free payloads (SNX-2112, Gemcitabine and Barasertib) in the respective cell lines is also shown.

[2] = test system: Trop2-positive cell lines; assay: In vitro cell viability (in vitro potency) of SN38 based ADCs; details: various target-positive cell lines
Method: Antibody-drug conjugates (ADCs) comprising the anti-Trop2 antibody Sacituzumab, a phosphorus(V) moiety according to embodiments of the present invention, and SN38 as drug were tested in in vitro potency assays against various Trop2-positive cell lines. The corresponding ADCs with the non-targeted antibody Trastuzumab were used as isotype control. For direct comparison, the approved and marketed ADC Trodelvy comprising Sacituzumab, a CL2A linker and SN38 as drug was also tested. The corresponding ADC with Trastuzumab was used as isotype control.
Linkers have been conjugated to Sacituzumab (anti-Trop2) and Trastuzumab (anti Her2, isotype in this setting) and tested on a panel of 4 different cell lines. All cell lines were Trop+ and Her2−. Trastuzumab conjugates serve as isotype control in this setting. […] Sacituzumab-CL2A-SN38 is Trodelvy and has been purchased for the experiment.

Compound | activity of free payload [1] | in vitro potency, non-cleavable control vs cleavable conjugate [2]
CC(C)c1cc(-c2n[nH]c(=O)n2-c2ccc3c(ccn3C)c2)c(O)cc1O [Ganetespib] | highest activity as free payload | –
Sacituzumab conjugated to O—P5(PEG12)-amidopentyl-Phosphoramidate-N-(4-Methylbenzyl)-O—SN38 | – | not active in the in vitro cell viability assay
Cc1cc(O)c(-c2ccc(C(C)CN(C)C)cc2)c2c1[nH]c(=O)c1sccc12 (stereo not shown) [OTS-964] | lower activities of the unconjugated drugs | –
Cc1sc2c(c1C)C(c1ccc(Cl)cc1)=N[C@@H](CC(=O)Nc1ccc(O)cc1)c1nnc(C)n1-2 [Birabresib] | lower activities of the unconjugated drugs | –
